Results from patent US6737383B1, “Herbicidal oxadiazolidines” (priority 1999, dated 2004).

What was measured:
pigweed = assay: Test B pre/postemergence pigweed; format: in vivo, Amaranthus retroflexus
How it was run: (§1)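 Response is a visual 0-to-10 score relative to untreated plants, where 0 means no effect and 10 means complete control, taken twelve to sixteen days after application. Treatments went onto soil at planting and onto foliage of 1- to 4-leaf plants, using a surfactant-containing non-phytotoxic solvent.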

giant foxtail = assay: Test B pre/postemergence giant foxtail; format: in vivo, Setaria faberii
How it was run: as §1

velvetleaf = assay: Test B pre/postemergence velvetleaf; format: in vivo, Abutilon theophrasti
How it was run: as §1

smallflower flatsedge = assay: Test B flood test smallflower flatsedge; format: in vivo, Cyperus difformis
How it was run: (§2)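 Plants were grown to the 2-leaf stage before treatment with test chemical, then held in a greenhouse for twelve to sixteen days. Injury was visually rated against untreated controls on a 0–10 scale, where 0 is no effect and 10 is complete control.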

wheat = assay: Test B pre/postemergence wheat; format: in vivo, Triticum aestivum
How it was run: as §1

blackgrass = assay: Test B pre/postemergence blackgrass; format: in vivo, Alopecurus myosuroides
How it was run: as §1

rape = assay: Test B pre/postemergence rape; format: in vivo, Brassica napus
How it was run: as §1

purple nutsedge = assay: Test B pre/postemergence purple nutsedge; format: in vivo, Cyperus rotundus
How it was run: as §1

corn = assay: Test B pre/postemergence corn; format: in vivo, Zea mays
How it was run: as §1

rice = assay: Test B flood test rice; format: in vivo, Oryza sativa
How it was run: as §2

duck salad = assay: Test B flood test duck salad; format: in vivo, Heteranthera limosa
How it was run: as §2

soybean = assay: Test B pre/postemergence soybean; format: in vivo, Glycine max
How it was run: as §1

cocklebur = assay: Test B pre/postemergence cocklebur; format: in vivo, Xanthium strumarium
How it was run: as §1

sugar beet = assay: Test B pre/postemergence sugar beet; format: in vivo, Beta vulgaris
How it was run: as §1

morningglory = assay: Test B pre/postemergence morningglory; format: in vivo, Ipomoea hederacea
How it was run: as §1

crabgrass = assay: Test B pre/postemergence crabgrass; format: in vivo, Digitaria sanguinalis
How it was run: as §1

[1] = Postemergence, Rate 31 g/ha, visual rating, scale 0 to 10 (0 no effect, 10 complete control)
[2] = Preemergence, Rate 31 g/ha, visual rating, scale 0 to 10 (0 no effect, 10 complete control)
[3] = Preemergence, Rate 62 g/ha, scale of 0 to 10 where 0 is no effect and 10 is complete control
[4] = Preemergence, Rate 250 g/ha, scale of 0 to 10 where 0 is no effect and 10 is complete control
[5] = Rate 62 g/ha, Postemergence, scale 0 to 10 (0 no effect, 10 complete control)
[6] = Rate 125 g/ha, Postemergence, scale of 0 to 10 where 0 is no effect and 10 is complete control
[7] = Rate 125 g/ha, Preemergence, scale of 0 to 10 where 0 is no effect and 10 is complete control
[8] = Rate 250 g/ha, Postemergence, scale of 0 to 10 where 0 is no effect and 10 is complete control
[9] = Rate 31 g/ha, Pre-emergence section (flood test species), scale 0 to 10
[10] = Rate 62 g/ha, headed Pre-emergence (flood test species), scale 0 to 10 (0 no effect, 10 complete control)
[11] = Rate 125 g/ha, Pre-emergence, flood test species, scale 0 to 10 where 0 is no effect and 10 is complete control
[12] = Rate 250 g/ha, Pre-emergence, flood-test species, scale 0 to 10, 0 is no effect, 10 is complete control

In the case of `CCOCn1c(=O)on(C(=O)N(c2ccc(F)cc2)C(C)C)c1=O` [Compound 295], the “Redroot pigweed plant response rating” value (pigweed; [1]) is reported as 0, the “Redroot pigweed plant response rating” value (pigweed; [2]) is reported as 0 and the “Redroot pigweed plant response rating” value (pigweed; [3]) is reported as 3. For the same molecule, the “Redroot pigweed plant response rating” value (pigweed; [4]) was 6, the “Redroot pigweed plant response rating” value (pigweed; [5]) was 0 and the “Redroot pigweed plant response rating” value (pigweed; [6]) was 5. The “Redroot pigweed plant response rating” value (pigweed; [7]) was 6, the “Plant response rating, Redroot pigweed” value (pigweed; [8]) was 7 and the “Giant foxtail plant response rating” value (giant foxtail; [1]) was 0. For the same molecule, the “Giant foxtail plant response rating” value (giant foxtail; [2]) was 8, the “Giant foxtail plant response rating” value (giant foxtail; [3]) was 8 and the “Giant foxtail plant response rating” value (giant foxtail; [4]) was 10. The “Giant foxtail plant response rating” value (giant foxtail; [5]) was 0, the “Giant foxtail plant response rating” value (giant foxtail; [6]) was 6 and the “Giant foxtail plant response rating” value (giant foxtail; [7]) was 10. The “Plant response rating, Giant foxtail” value (giant foxtail; [8]) was 9, the “Velvetleaf plant response rating” value (velvetleaf; [1]) was 0 and the “Velvetleaf plant response rating” value (velvetleaf; [2]) was 0. The “Velvetleaf plant response rating” value (velvetleaf; [3]) was 0, the “Velvetleaf plant response rating” value (velvetleaf; [4]) was 3 and the “Velvetleaf plant response rating” value (velvetleaf; [5]) was 0. The “Velvetleaf plant response rating” value (velvetleaf; [6]) was 0, the “Velvetleaf plant response rating” value (velvetleaf; [7]) was 0 and the “Plant response rating, Velvetleaf” value (velvetleaf; [8]) was 5. The “S. Flatsedge plant response rating” value (smallflower flatsedge; [9]) was 0, the “S. Flatsedge plant response rating” value (smallflower flatsedge; [10]) was 0 and the “S. Flatsedge plant response rating” value (smallflower flatsedge; [11]) was 0. For the same molecule, the “S. Flatsedge plant response rating” value (smallflower flatsedge; [12]) was 0, the “Wheat plant response rating” value (wheat; [1]) was 0 and the “Wheat plant response rating” value (wheat; [2]) was 0. For the same molecule, the “Wheat plant response rating” value (wheat; [3]) was 0, the “Wheat plant response rating” value (wheat; [4]) was 6 and the “Wheat plant response rating” value (wheat; [5]) was 0. For the same molecule, the “Wheat plant response rating” value (wheat; [6]) was 0, the “Wheat plant response rating” value (wheat; [7]) was 3 and the “Plant response rating, Wheat” value (wheat; [8]) was 3. For the same molecule, the “Blackgrass plant response rating” value (blackgrass; [1]) was 0, the “Blackgrass plant response rating” value (blackgrass; [2]) was 4 and the “Blackgrass plant response rating” value (blackgrass; [3]) was 5. The “Blackgrass plant response rating” value (blackgrass; [4]) was 10, the “Blackgrass plant response rating” value (blackgrass; [5]) was 2 and the “Blackgrass plant response rating” value (blackgrass; [6]) was 7. The “Blackgrass plant response rating” value (blackgrass; [7]) was 10, the “Plant response rating, Blackgrass” value (blackgrass; [8]) was 9 and the “Rape plant response rating” value (rape; [1]) was 0. The “Rape plant response rating” value (rape; [2]) was 0, the “Rape plant response rating” value (rape; [3]) was 0 and the “Rape plant response rating” value (rape; [4]) was 10. For the same molecule, the “Rape plant response rating” value (rape; [5]) was 0, the “Rape plant response rating” value (rape; [6]) was 0 and the “Rape plant response rating” value (rape; [7]) was 2. For the same molecule, the “Plant response rating, Rape” value (rape; [8]) was 3, the “Nutsedge plant response rating” value (purple nutsedge; [1]) was 0 and the “Nutsedge plant response rating” value (purple nutsedge; [2]) was 0. For the same molecule, the “Nutsedge plant response rating” value (purple nutsedge; [3]) was 0, the “Nutsedge plant response rating” value (purple nutsedge; [4]) was 0 and the “Nutsedge plant response rating” value (purple nutsedge; [5]) was 0. The “Nutsedge plant response rating” value (purple nutsedge; [6]) was 0, the “Nutsedge plant response rating” value (purple nutsedge; [7]) was 0 and the “Plant response rating, Nutsedge” value (purple nutsedge; [8]) was 0. For the same molecule, the “Corn plant response rating” value (corn; [1]) was 0, the “Corn plant response rating” value (corn; [2]) was 0 and the “Corn plant response rating” value (corn; [3]) was 0. For the same molecule, the “Corn plant response rating” value (corn; [4]) was 0, the “Corn plant response rating” value (corn; [5]) was 0 and the “Corn plant response rating” value (corn; [6]) was 0. For the same molecule, the “Corn plant response rating” value (corn; [7]) was 0, the “Plant response rating, Corn” value (corn; [8]) was 0 and the “Rice plant response rating” value (rice; [9]) was 0. For the same molecule, the “Rice plant response rating” value (rice; [10]) was 0, the “Rice plant response rating” value (rice; [11]) was 0 and the “Rice plant response rating” value (rice; [12]) was 0. For the same molecule, the “Ducksalad plant response rating” value (duck salad; [9]) was 0, the “Ducksalad plant response rating” value (duck salad; [10]) was 0 and the “Ducksalad plant response rating” value (duck salad; [11]) was 0. For the same molecule, the “Ducksalad plant response rating” value (duck salad; [12]) was 0, the “Soybean plant response rating” value (soybean; [1]) was 1 and the “Soybean plant response rating” value (soybean; [2]) was 0. For the same molecule, the “Soybean plant response rating” value (soybean; [3]) was 0, the “Soybean plant response rating” value (soybean; [4]) was 0 and the “Soybean plant response rating” value (soybean; [5]) was 2. The “Soybean plant response rating” value (soybean; [6]) was 2, the “Soybean plant response rating” value (soybean; [7]) was 0 and the “Plant response rating, Soybean” value (soybean; [8]) was 4. For the same molecule, the “Cocklebur plant response rating” value (cocklebur; [1]) was 0, the “Cocklebur plant response rating” value (cocklebur; [2]) was 0 and the “Cocklebur plant response rating” value (cocklebur; [3]) was 0. The “Cocklebur plant response rating” value (cocklebur; [4]) was 0, the “Cocklebur plant response rating” value (cocklebur; [5]) was 0 and the “Cocklebur plant response rating” value (cocklebur; [6]) was 0. The “Cocklebur plant response rating” value (cocklebur; [7]) was 0, the “Plant response rating, Cocklebur” value (cocklebur; [8]) was 0 and the “Sugarbeets plant response rating” value (sugar beet; [1]) was 0. The “Sugarbeets plant response rating” value (sugar beet; [2]) was 0, the “Sugarbeets plant response rating” value (sugar beet; [3]) was 0 and the “Sugarbeets plant response rating” value (sugar beet; [4]) was 3. For the same molecule, the “Sugarbeets plant response rating” value (sugar beet; [5]) was 0, the “Sugarbeets plant response rating” value (sugar beet; [6]) was 0 and the “Sugarbeets plant response rating” value (sugar beet; [7]) was 0. The “Plant response rating, Sugarbeets” value (sugar beet; [8]) was 0, the “Morningglory plant response rating” value (morningglory; [1]) was 1 and the “Morningglory plant response rating” value (morningglory; [2]) was 0. The “Morningglory plant response rating” value (morningglory; [3]) was 0, the “Morningglory plant response rating” value (morningglory; [4]) was 0 and the “Morningglory plant response rating” value (morningglory; [5]) was 1. For the same molecule, the “Morningglory plant response rating” value (morningglory; [6]) was 5, the “Morningglory plant response rating” value (morningglory; [7]) was 0 and the “Plant response rating, Morningglory” value (morningglory; [8]) was 7. For the same molecule, the “Crabgrass plant response rating” value (crabgrass; [1]) was 0, the “Crabgrass plant response rating” value (crabgrass; [2]) was 2 and the “Crabgrass plant response rating” value (crabgrass; [3]) was 2. The “Crabgrass plant response rating” value (crabgrass; [4]) was 7, the “Crabgrass plant response rating” value (crabgrass; [5]) was 0 and the “Crabgrass plant response rating” value (crabgrass; [6]) was 3. For the same molecule, the “Crabgrass plant response rating” value (crabgrass; [7]) was 7 and the “Plant response rating, Crabgrass” value (crabgrass; [8]) was 8.
